From patent US10800791B2, “Triazole ACC inhibitors and uses thereof” (Gilead Apollo, LLC, priority 2015, dated 2020)
Values after ≈ are worked out from the molar mass of the structure shown. Like-named read-outs stand apart in the source and are kept apart here.

Tests used:
C. albicans = assay: Antifungal Activity Assay (broth microtiter MIC), C. albicans; format: cell-based, Candida albicans; details: Candida albicans, ATCC90028, 48 h
Procedure, shortened: (§1)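 Colonies from 24 h Sabouraud dextrose agar plates (35° C) are suspended in RPMI 1640+MOPS and diluted to give 2.5×10^3 CFU/mL in the wells. Plates are set up per CLSI M27-A3. Visual MIC is recorded at 48 h.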

C. krusei = assay: Antifungal Activity Assay (broth microtiter MIC), C. krusei; format: cell-based, Candida krusei; details: Pichia kudriavzevii, ATCC6258, 48 h
Procedure, shortened: as §1

C. parapsilosis = assay: Antifungal Activity Assay (broth microtiter MIC), C. parapsilosis; format: cell-based, Candida parapsilosis; details: Lodderomyces parapsilosis, ATCC22019, 48 h
Procedure, shortened: as §1

Botrtyis cinerea (Bc) = assay: Growth inhibition assay of fungal pathogens, Bc; format: cell-based; details: 48 h
Procedure, shortened: (§2)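 Inhibition percentages reflect 48 h OD600 and visual scores relative to a 2% DMSO control. Test concentrations were 50, 10, 2 ppm or 2, 0.4, 0.08 ppm final, applied to spores in 17% V8 medium.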

[1] = system: Collectotrichum graminicola (Cg); assay: Growth inhibition assay of fungal pathogens, Cg; format: cell-based; details: 48 h
Procedure, shortened: as §2

Diplodia maydis (Dm) = assay: Growth inhibition assay of fungal pathogens, Dm; format: cell-based; details: Stenocarpella maydis, 48 h
Procedure, shortened: as §2

[2] = system: Fusarium moniliforme (Fm); assay: Growth inhibition assay of fungal pathogens, Fm; format: cell-based; details: for IC90: Fusarium verticillioides, 48 h, read-out: Concentration at 90% Inhibition Fm
Procedure, shortened: as §2

[3] = system: Fusarium virguliforme (Fv); assay: Growth inhibition assay of fungal pathogens, Fv; format: cell-based; details: 48 h
Procedure, shortened: as §2

Rhizoctonia solani (Rs) = assay: Growth inhibition assay of fungal pathogens, Rs; format: cell-based; details: 48 h
Septoria tritici (St) = assay: Growth inhibition assay of fungal pathogens, St; format: cell-based; details: Zymoseptoria tritici, 48 h
Procedure, shortened: as §2

fungal (fACC2) = fungal (fACC2) (UniProt Q00955); details: read-out: fACC2 (in vitro ACC2 Inhibition Assay, IC50), ADP-Glo, 5 nM ACC2, 20 μM ATP, 20 μM acetyl-CoA
[4] = Fusarium moniliforme, growth inhibition at 48 hours vs 2% DMSO control
[5] = Table 3a, ATCC 90028, 3 replicates, MIC recorded at 48 h, read-out: MIC, C. albicans ATCC 90028
[6] = Table 3b (additional results), ATCC 90028, 3 replicates, MIC recorded at 48 h, read-out: MIC, C. albicans ATCC 90028
[7] = Table 3a, ATCC 6258, 3 replicates, MIC recorded at 48 h, read-out: MIC, C. krusei ATCC 6258
[8] = Table 3b (additional results), ATCC 6258, 3 replicates, MIC recorded at 48 h, read-out: MIC, C. krusei ATCC 6258
[9] = Table 3a, ATCC 22019, 3 replicates, MIC recorded at 48 h, read-out: MIC, C. parapsilosis ATCC 22019
[10] = Table 3b (additional results), ATCC 22019, 3 replicates, MIC recorded at 48 h, read-out: MIC, C. parapsilosis ATCC 22019
[11] = Botrtyis cinerea, growth inhibition at 48 hours vs 2% DMSO control, read-out: Concentration at 90% Inhibition Bc
[12] = Botrtyis cinerea, growth inhibition vs 2% DMSO control at 48 hours, read-out: Concentration at 90% Inhibition Bc
[13] = Collectotrichum graminicola, growth inhibition at 48 hours vs 2% DMSO control, read-out: Concentration at 90% Inhibition Cg
[14] = Collectotrichum graminicola, growth inhibition vs 2% DMSO control at 48 hours, read-out: Concentration at 90% Inhibition Cg
[15] = Diplodia maydis, growth inhibition at 48 hours vs 2% DMSO control, read-out: Concentration at 90% Inhibition Dm
[16] = Diplodia maydis, growth inhibition vs 2% DMSO control at 48 hours, read-out: Concentration at 90% Inhibition Dm
[17] = Fusarium moniliforme, growth inhibition vs 2% DMSO control at 48 hours
[18] = growth inhibition at 48 hours vs 2% DMSO control, read-out: Concentration at 90% Inhibition Fv
[19] = growth inhibition vs 2% DMSO control at 48 hours, read-out: Concentration at 90% Inhibition Fv
[20] = mycelial plugs, growth inhibition at 48 hours vs 2% DMSO control, read-out: Concentration at 90% Inhibition Rs
[21] = mycelial plugs, growth inhibition vs 2% DMSO control at 48 hours, read-out: Concentration at 90% Inhibition Rs
[22] = Septoria tritici, growth inhibition at 48 hours vs 2% DMSO control, read-out: Concentration at 90% Inhibition St
[23] = Septoria tritici, growth inhibition vs 2% DMSO control at 48 hours, read-out: Concentration at 90% Inhibition St

Chain of fungal (fACC2) (Q00955 whole entry): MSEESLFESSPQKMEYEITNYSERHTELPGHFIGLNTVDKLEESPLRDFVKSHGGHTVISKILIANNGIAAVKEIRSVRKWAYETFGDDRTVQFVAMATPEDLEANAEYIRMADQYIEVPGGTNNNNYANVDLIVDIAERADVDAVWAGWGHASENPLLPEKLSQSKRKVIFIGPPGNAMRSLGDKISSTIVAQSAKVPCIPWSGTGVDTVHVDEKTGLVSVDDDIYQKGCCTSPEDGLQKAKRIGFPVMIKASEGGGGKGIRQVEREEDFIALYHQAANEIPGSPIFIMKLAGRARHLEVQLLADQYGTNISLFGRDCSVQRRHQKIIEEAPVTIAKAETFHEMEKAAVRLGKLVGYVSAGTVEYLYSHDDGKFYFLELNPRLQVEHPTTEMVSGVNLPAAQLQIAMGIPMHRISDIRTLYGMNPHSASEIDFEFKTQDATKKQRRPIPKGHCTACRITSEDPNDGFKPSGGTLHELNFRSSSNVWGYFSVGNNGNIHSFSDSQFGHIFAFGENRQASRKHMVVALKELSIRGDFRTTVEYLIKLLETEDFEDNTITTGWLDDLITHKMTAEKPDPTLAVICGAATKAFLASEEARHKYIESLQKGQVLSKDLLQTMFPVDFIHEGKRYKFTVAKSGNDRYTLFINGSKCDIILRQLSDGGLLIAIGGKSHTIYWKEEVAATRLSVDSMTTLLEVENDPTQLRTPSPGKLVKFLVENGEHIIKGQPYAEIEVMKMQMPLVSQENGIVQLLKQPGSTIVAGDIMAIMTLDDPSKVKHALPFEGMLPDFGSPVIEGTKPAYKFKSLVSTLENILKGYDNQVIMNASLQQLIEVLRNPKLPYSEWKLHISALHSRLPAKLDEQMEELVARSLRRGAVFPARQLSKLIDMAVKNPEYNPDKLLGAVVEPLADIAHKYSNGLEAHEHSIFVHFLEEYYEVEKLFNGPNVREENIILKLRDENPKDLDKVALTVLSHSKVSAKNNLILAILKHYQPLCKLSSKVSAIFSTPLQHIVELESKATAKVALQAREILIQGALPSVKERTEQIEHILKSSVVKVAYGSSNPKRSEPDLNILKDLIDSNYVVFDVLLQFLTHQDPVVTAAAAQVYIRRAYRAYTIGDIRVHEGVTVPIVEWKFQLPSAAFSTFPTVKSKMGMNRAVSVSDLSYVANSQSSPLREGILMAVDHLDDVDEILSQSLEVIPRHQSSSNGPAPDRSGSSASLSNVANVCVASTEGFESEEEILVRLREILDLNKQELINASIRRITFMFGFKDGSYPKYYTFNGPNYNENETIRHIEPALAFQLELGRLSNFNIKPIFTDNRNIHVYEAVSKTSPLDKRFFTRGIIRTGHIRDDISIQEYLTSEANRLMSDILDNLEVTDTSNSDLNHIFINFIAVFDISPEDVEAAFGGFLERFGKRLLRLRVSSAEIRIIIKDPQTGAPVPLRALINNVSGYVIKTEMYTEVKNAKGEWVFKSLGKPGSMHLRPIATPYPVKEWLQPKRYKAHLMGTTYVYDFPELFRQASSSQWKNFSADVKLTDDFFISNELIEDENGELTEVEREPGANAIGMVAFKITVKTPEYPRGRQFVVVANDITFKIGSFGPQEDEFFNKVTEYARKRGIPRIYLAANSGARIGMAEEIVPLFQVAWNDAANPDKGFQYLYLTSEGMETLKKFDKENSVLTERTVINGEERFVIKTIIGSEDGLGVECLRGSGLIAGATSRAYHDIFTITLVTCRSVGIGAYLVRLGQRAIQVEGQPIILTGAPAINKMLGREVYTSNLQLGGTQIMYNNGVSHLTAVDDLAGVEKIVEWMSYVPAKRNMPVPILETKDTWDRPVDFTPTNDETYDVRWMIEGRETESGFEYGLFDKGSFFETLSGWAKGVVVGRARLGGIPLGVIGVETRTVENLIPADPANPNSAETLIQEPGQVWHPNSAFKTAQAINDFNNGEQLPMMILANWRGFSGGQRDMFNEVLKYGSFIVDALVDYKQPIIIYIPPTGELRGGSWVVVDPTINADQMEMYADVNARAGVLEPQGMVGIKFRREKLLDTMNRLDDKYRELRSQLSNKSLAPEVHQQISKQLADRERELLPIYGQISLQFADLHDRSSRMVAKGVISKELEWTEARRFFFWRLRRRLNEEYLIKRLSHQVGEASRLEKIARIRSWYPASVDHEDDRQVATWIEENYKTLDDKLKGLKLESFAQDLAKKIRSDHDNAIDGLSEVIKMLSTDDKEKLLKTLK

Cc1c(-n2nccn2)sc2c1c(=O)n(C(C)(C)C(=O)NC(C)C)c(=O)n2C[C@H](OC(C)C)c1cc(F)ccc1OCC#N [Compound I-56, (R)-2-(1-(2-(2-(cyanomethoxy)-5-fluorophenyl)-2-isopropoxyethyl)-5-methyl-2,4-dioxo-6-(2H-1,2,3-triazol-2-yl)-1,4-dihydrothieno[2,3-d]pyrimidin-3(2H)-yl)-N-isopropyl-2-methylpropanamide]
MIC (C. albicans; read-out: MIC, C. albicans ATCC 90028, Table 3a, 3 replicates, MIC recorded at 48 h): 0.25 to 1 µg/mL (≈ 0.409 to 1.63 µM) | MIC (C. albicans; read-out: MIC, C. albicans ATCC 90028, Table 3b (additional results), 3 replicates, MIC recorded at 48 h): 1.01 to 2 µg/mL (≈ 1.65 to 3.27 µM) | MIC (C. krusei; read-out: MIC, C. krusei ATCC 6258, Table 3a, 3 replicates, MIC recorded at 48 h): 0.06 to 0.24 µg/mL (≈ 0.0981 to 0.392 µM) | MIC (C. krusei; read-out: MIC, C. krusei ATCC 6258, Table 3b (additional results), 3 replicates, MIC recorded at 48 h): 0.25 to 1 µg/mL (≈ 0.409 to 1.63 µM) | MIC (C. parapsilosis; read-out: MIC, C. parapsilosis ATCC 22019, Table 3a, 3 replicates, MIC recorded at 48 h): 0.25 to 1 µg/mL (≈ 0.409 to 1.63 µM) | MIC (C. parapsilosis; read-out: MIC, C. parapsilosis ATCC 22019, Table 3b (additional results), 3 replicates, MIC recorded at 48 h): 1.01 to 2 µg/mL (≈ 1.65 to 3.27 µM) | IC90 (Botrtyis cinerea (Bc); read-out: Concentration at 90% Inhibition Bc, Botrtyis cinerea, growth inhibition at 48 hours vs 2% DMSO control): 0.4 µg/mL (≈ 0.654 µM) | IC90 (Botrtyis cinerea (Bc); read-out: Concentration at 90% Inhibition Bc, Botrtyis cinerea, growth inhibition vs 2% DMSO control at 48 hours): 0.4 µg/mL (≈ 0.654 µM) | IC90 ([1]; read-out: Concentration at 90% Inhibition Cg, Collectotrichum graminicola, growth inhibition at 48 hours vs 2% DMSO control): 2 µg/mL (≈ 3.27 µM) | IC90 ([1]; read-out: Concentration at 90% Inhibition Cg, Collectotrichum graminicola, growth inhibition vs 2% DMSO control at 48 hours): 2 µg/mL (≈ 3.27 µM) | IC90 (Diplodia maydis (Dm); read-out: Concentration at 90% Inhibition Dm, Diplodia maydis, growth inhibition at 48 hours vs 2% DMSO control): 0.4 µg/mL (≈ 0.654 µM) | IC90 (Diplodia maydis (Dm); read-out: Concentration at 90% Inhibition Dm, Diplodia maydis, growth inhibition vs 2% DMSO control at 48 hours): 0.4 µg/mL (≈ 0.654 µM) | Concentration at 90% Inhibition Fm [2, 4]: AA (compound concentration of 0.08 ppm at 90% inhibition of fungal pathogens) | IC90 [2]: 0.08 µg/mL (≈ 0.131 µM) | IC90 ([3]; read-out: Concentration at 90% Inhibition Fv, Fusarium virguliforme, growth inhibition at 48 hours vs 2% DMSO control): 0.08 µg/mL (≈ 0.131 µM) | IC90 ([3]; read-out: Concentration at 90% Inhibition Fv, Fusarium virguliforme, growth inhibition vs 2% DMSO control at 48 hours): 0.08 µg/mL (≈ 0.131 µM) | IC90 (Rhizoctonia solani (Rs); read-out: Concentration at 90% Inhibition Rs, Rhizoctonia solani, mycelial plugs, growth inhibition at 48 hours vs 2% DMSO control): 2 µg/mL (≈ 3.27 µM) | IC90 (Rhizoctonia solani (Rs); read-out: Concentration at 90% Inhibition Rs, Rhizoctonia solani, mycelial plugs, growth inhibition vs 2% DMSO control at 48 hours): 2 µg/mL (≈ 3.27 µM) | IC90 (Septoria tritici (St); read-out: Concentration at 90% Inhibition St, Septoria tritici, growth inhibition at 48 hours vs 2% DMSO control): 10 µg/mL (≈ 16.3 µM) | IC90 (Septoria tritici (St); read-out: Concentration at 90% Inhibition St, Septoria tritici, growth inhibition vs 2% DMSO control at 48 hours): > 50 µg/mL | IC50 (fungal (fACC2); Table 2a): 1 to 5 nM | IC50 (fungal (fACC2); Table 2b, additional results): 1 to 5 nM

COc1ccc(F)cc1[C@H](Cn1c(=O)n(C(C)(C)C(=O)N2CC=CC2)c(=O)c2c(C)c(-n3nccn3)sc21)OC1CCOCC1 [Compound I-62, (R)-3-(1-(2,5-dihydro-1H-pyrrol-1-yl)-2-methyl-1-oxopro-pan-2-yl)-1-(2-(5-fluoro-2-methoxyphenyl)-2-((tetrahydro-2H-pyran-4-yl)oxy)ethyl)-5-methyl-6-(2H-1,2,3-triazol-2-yl)thieno[2,3-d]pyrimidine-2,4(1H,3H)-dione]
MIC (C. albicans; [5]): 0.25 to 1 µg/mL (≈ 0.391 to 1.57 µM) | MIC (C. albicans; [6]): 0.25 to 1 µg/mL (≈ 0.391 to 1.57 µM) | MIC (C. krusei; [7]): 0.25 to 1 µg/mL (≈ 0.391 to 1.57 µM) | MIC (C. krusei; [8]): 0.25 to 1 µg/mL (≈ 0.391 to 1.57 µM) | MIC (C. parapsilosis; [9]): 0.25 to 1 µg/mL (≈ 0.391 to 1.57 µM) | MIC (C. parapsilosis; [10]): 1.01 to 2 µg/mL (≈ 1.58 to 3.13 µM) | IC90 (Botrtyis cinerea (Bc); [11]): 2 µg/mL (≈ 3.13 µM) | IC90 (Botrtyis cinerea (Bc); [12]): 2 µg/mL (≈ 3.13 µM) | IC90 [1, 13]: 0.4 µg/mL (≈ 0.626 µM) | IC90 [1, 14]: 0.4 µg/mL (≈ 0.626 µM) | IC90 (Diplodia maydis (Dm); [15]): 0.4 µg/mL (≈ 0.626 µM) | IC90 (Diplodia maydis (Dm); [16]): 0.4 µg/mL (≈ 0.626 µM) | IC90 [2, 4]: 0.08 µg/mL (≈ 0.125 µM) | IC90 [2, 17]: 0.08 µg/mL (≈ 0.125 µM) | IC90 [3, 18]: 0.4 µg/mL (≈ 0.626 µM) | IC90 [3, 19]: 0.4 µg/mL (≈ 0.626 µM) | IC90 (Rhizoctonia solani (Rs); [20]): 0.08 µg/mL (≈ 0.125 µM) | IC90 (Rhizoctonia solani (Rs); [21]): 0.08 µg/mL (≈ 0.125 µM) | IC90 (Septoria tritici (St); [22]): > 50 µg/mL | IC90 (Septoria tritici (St); [23]): > 50 µg/mL | IC50 (fungal (fACC2); Table 2a): 1 to 5 nM | IC50 (fungal (fACC2); Table 2b, additional results): 1 to 5 nM

COc1ccc(F)cc1[C@H](Cn1c(=O)n(C(C)(C)C(=O)N2CC=CC2)c(=O)c2c(C)c(-n3nccn3)sc21)OC[C@@H](C)O [Compound I-63, 3-(1-(2,5-dihydro-1H-pyrrol-1-yl)-2-methyl-1-oxopropan-2-yl)-1-((R)-2-(5-fluoro-2-methoxyphenyl)-2-((R)-2-hydroxypropoxy)ethyl)-5-methyl-6-(2H-1,2,3-triazol-2-yl)thieno[2,3-d]pyrimidine-2,4(1H,3H)-dione]
MIC (C. albicans; [5]): 0.25 to 1 µg/mL (≈ 0.408 to 1.63 µM) | MIC (C. albicans; [6]): 1.01 to 2 µg/mL (≈ 1.65 to 3.26 µM) | MIC (C. krusei; [7]): 0.25 to 1 µg/mL (≈ 0.408 to 1.63 µM) | MIC (C. krusei; [8]): > 4.01 µg/mL | MIC (C. parapsilosis; [9]): 1.1 to 2 µg/mL (≈ 1.8 to 3.26 µM) | MIC (C. parapsilosis; [10]): 2.01 to 4 µg/mL (≈ 3.28 to 6.53 µM) | IC90 (Botrtyis cinerea (Bc); [11]): 2 µg/mL (≈ 3.26 µM) | IC90 (Botrtyis cinerea (Bc); [12]): 2 µg/mL (≈ 3.26 µM) | IC90 [1, 13]: 0.4 µg/mL (≈ 0.653 µM) | IC90 [1, 14]: 0.4 µg/mL (≈ 0.653 µM) | IC90 (Diplodia maydis (Dm); [15]): 2 µg/mL (≈ 3.26 µM) | IC90 (Diplodia maydis (Dm); [16]): 2 µg/mL (≈ 3.26 µM) | IC90 [2, 4]: 0.08 µg/mL (≈ 0.131 µM) | IC90 [2, 17]: 0.08 µg/mL (≈ 0.131 µM) | IC90 [3, 18]: 0.4 µg/mL (≈ 0.653 µM) | IC90 [3, 19]: 0.4 µg/mL (≈ 0.653 µM) | IC90 (Rhizoctonia solani (Rs); [20]): 0.4 µg/mL (≈ 0.653 µM) | IC90 (Rhizoctonia solani (Rs); [21]): 0.4 µg/mL (≈ 0.653 µM) | IC90 (Septoria tritici (St); [22]): > 50 µg/mL | IC90 (Septoria tritici (St); [23]): > 50 µg/mL | IC50 (fungal (fACC2); Table 2a): 0.4 to 1 nM | IC50 (fungal (fACC2); Table 2b, additional results): 0.3 to 1 nM
